This note sets out measurements from patent US11912713B2, “7-membered aza-heterocyclic containing delta-opioid receptor modulating compounds, methods of using and making the same” (Trevena, Inc., priority 2017, dated 2024).

In one assay the test system is adult male C57 mice. As to the kind of experiment: Tail suspension test (TST). The class given is in vivo, mouse. The procedure: The experiments were performed using adult male C57 mice (6-10 weeks of age, 20-30 g, Hilltop Lab, PA). The mice were housed in standard rodent cages with stainless steel mesh wire bar lids in groups of 4 with controlled temperature and light cycle (6:00 a.m.-6:00 p.m.). Animals were given free access to food (Harlan Teklad Global 18% protein (Madison, WI)) and water during a minimum 2-day habituation period to the laboratory. Animals that were used in the study were handled, housed, and sacrificed (using compressed CO2) in accord with the current NIH guidelines regarding the use and care of laboratory animals, and all applicable local, state, and federal regulations and guidelines. Animals are identified by cage number, and by markings applied to the proximal tip of the tail using a permanent marker. Group sizes (n=8, and therefore 30-50 animals per study) provide reliable estimates of treatment effects, and this species and strain of mouse has been recognized as appropriate for pharmacology studies.
To measure efficacy of the compounds the compounds were tested using a tail suspension test. The tail suspension test is a behavioral test used to evaluate the efficacy of antidepressant drugs in rodents. In the TST, mice (n=8/group) were suspended by the tail with tape approximately 30-50 cm above the lab bench. Mice are positioned such that the base of their tail is perpendicular to the lab bench. Each mouse is given 1 trial that last 6 minutes. The total duration of immobility is calculated as the percentage of time that the mouse is immobile. The duration of immobility is the main parameter measured. This is calculated from the cumulated time during which the animals is absent of initiated movements including passive swaying. When antidepressant drugs are administered, immobility is decreased by a variety of classes of antidepressant drugs. One or more of the compounds show antidepressant activity.

The target of assay [1] is T1, delta-opioid receptor (hDOR) (Homo sapiens, UniProt P41143). As to the kind of experiment: β-Arrestin recruitment assay (PathHunter). The class given is cell-based. The procedure:
(§1) Clonal stable lines were subsequently selected under G418.
(§2) Cell lines were grown adherently in Minimum Essential Media (Cellgro cat #10-010-CM) containing 10% fetal bovine serum (Hyclone cat #SH30071.03), 4 mM glutamine (Cellgro cat #25-005-CI), 150 ug/ml hygromycin B (Cellgro cat #30-240-CR), 150 ug/ml G418 (Cellgro cat #30-234-CR), and 50 u/50 ug penicillin/streptomycin (Lonza cat #17-603E). Prior to the assay cells were removed from the flasks with CellStripper (Cellgro cat #25-056-CI), repeatedly pipetted to disperse cells, and spun at low speed for 5 min at room temperature. Cells were then resuspended at 250,000 cells/ml in growth media and plated at 5,000 cells/well in 384 well plates (Greiner part #784080). Plates were incubated overnight at 37° C., 5% CO2 in a humidified incubator.
Receptor mediated beta-arrestin recruitment was determined using the DiscoveRx β-arrestin PathHunter Detection kit (cat #93-0001). In this system, β-Arrestin is fused to an N-terminal deletion mutant of β-galactosidase (termed the enzyme acceptor of EA) and the GPCR of interest is fused to a smaller (42 amino acids), weakly complementing fragment termed ProLink™. […] Following a 60 minute incubation at 37° C. the components of the DiscoveRx β-arrestin PathHunter Detection kit were added as directed and the plates were read after 1 hour on a BMG PheraStar plate reader.
On the technique in general: Activated receptors often draw arrestin, which recruitment assays turn into a signal.

For assay [2], the system named is mu- and kappa-opioid receptors. The following applies: versus mu- and kappa-opioid receptors.
Excerpt: Plasmids encoding delta-opioid receptor (Accession NP_000902), mu-opioid receptor (Accession NP_000905) and kappa-opioid receptor (Accession Assession NP_000903) were generated in the pCMV-Prolink backbone and transfected into an EA-arrestin parental human embryonic kidney (HEK-293) cell line from DiscoveRx Corporation. Clonal stable lines were subsequently selected under G418.
The values are normalized against DPDPE ([D-Pen2,5]Enkephalin, [D-Pen2,D-Pen5]Enkephalin), which is a known agonist of the receptor. Compound selectivity was also evaluated by testing compounds on the mu- and kappa-opioid receptors, the values from which were normalized against DAMGO ([D-Ala2, N-Me-Phe4, Gly5-ol]-Enkephalin acetate salt) and U69,593, respectively.
The target in assay [3] is T1, delta-opioid receptor (hDOR). As to the kind of experiment: cAMP assay (receptor G-protein mediated response). Conditions: efficacy, normalized against DPDPE. In kind it is cell-based. The procedure:
as §1, §2
Receptor G-protein mediated responses were determined by measuring changes in intracellular cAMP using CisBio HTRF cAMP HiRange kit (cat #62AM6PEJ) based on time-resolved fluorescence resonance energy transfer (TR-FRET). […] Following a 30 minute incubation at 37° C. the components of the cAMP HiRange kit were added as directed and the plates were read after 1 hour on a BMG PheraStar plate reader. Responses were measured as the ratio of fluorescence at 665 nm/620 nm per manufacturer's instructions.

Some results are limits rather than exact numbers.

T1 sequence (P41143 whole entry): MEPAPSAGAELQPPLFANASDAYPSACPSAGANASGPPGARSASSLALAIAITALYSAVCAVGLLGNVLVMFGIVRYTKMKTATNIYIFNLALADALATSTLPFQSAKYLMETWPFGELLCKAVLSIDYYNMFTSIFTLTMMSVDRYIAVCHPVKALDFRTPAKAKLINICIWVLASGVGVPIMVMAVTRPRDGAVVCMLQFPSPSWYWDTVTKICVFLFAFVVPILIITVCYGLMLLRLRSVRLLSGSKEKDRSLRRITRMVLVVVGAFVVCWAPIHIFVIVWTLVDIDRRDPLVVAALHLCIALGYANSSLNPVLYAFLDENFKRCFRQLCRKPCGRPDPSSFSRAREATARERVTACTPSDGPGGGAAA

As for `CCCN1CC[C@@H](COc2ccc3c(c2)C(=O)NC3)[C@H](c2ccc(OC)cc2)CC1` (racemic) [Compound C0004, (±)-6-{((trans)-5-(4-methoxyphenyl)-1-propylazepan-4-yl]methoxy}-2,3-dihydro-1H-isoindol-1-one], the “Active TST Dose” value in the assay on adult male C57 mice (route sc) is at most 30 mg/kg.

For `COc1ccc(C2CCN(CCc3ccccc3)C(C)CC2COc2ccc3c(c2)C(=O)NC3)cc1` (stereo not drawn) [Compound C0457, 6-{[(trans)-5-(4-methoxyphenyl)-2-methyl-1-(2-phenylethyl)azepan-4-yl]methoxy}-2,3-dihydro-1H-isoindol-1-one], the “Active TST Dose” value with adult male C57 mice (route po) is reported as at most 60 mg/kg. On to `CCCN1C2CCC1CC(c1ccc(OC)cc1)=C(COc1ccc3c(c1)C(=O)NC3)C2` (racemic) [Compound C0066, 6-{[4-(4-methoxyphenyl)-9-propyl-9-azabicyclo[4.2.1]non-3-en-3-yl]methoxy}-2,3-dihydro-1H-isoindol-1-one], for which, in the assay on adult male C57 mice (route sc), the “Active TST Dose” value is on record as at most 10 mg/kg. The same measure, in the same setting: as for `CCCN1C2CCC1CC(c1ccc(OC)cc1)C(CCc1ccc3c(c1)C(=O)NC3)C2` (stereo not drawn) [Compound C0084, 6-{2-((cis)-4-(4-methoxyphenyl)-9-propyl-9-azabicyclo[4.2.1]nonan-3-yl]ethyl}-2,3-dihydro-1H-(trans)-isoindol-1-one], the figure is at most 30 mg/kg.

`Fc1ccc([C@@H]2CCNC[C@H]2COc2ccc3c(c2)OCO3)cc1` [Paroxetine]: the “hDOR B Span” value in assay [1] (efficacy, normalized against DPDPE) was under 100. Besides, in assay [1] (β-arrestin recruitment, HEK-293 cells, read-out: hDOR B pEC50 (converted)), the EC50 is over 1 µM. Also, the “selectivity for the delta-opioid receptor” value in assay [2] is reported as “non-selectivity”. Besides, in assay [3], the “hDOR G Span” value was under 100.
